{"source": "patent US7968526B2", "about": "“Antisense oligonucleotides directed to ribonucleotide reductase R2 and uses thereof in the treatment of cancer” (Lorus Therapeutics Inc., priority 2003, dated 2011)", "key": {"[1]": {"test_system": "Hela S3 human cervix epitheloid carcinoma cells", "test": "Hela S3 hydroxyurea resistant cervix carcinoma xenograft in SCID mice", "format": "in vivo, human cells in mice", "procedure": "BxPC-3 is a gemcitabine resistant call line. […] Gemcitabine was administered intravenously every three days at a dose of 100 mg/kg. Antitumour activities were estimated by the inhibition of tumour volume, which was measured with caliper. Each point represents mean tumour volume calculated from 10 animals per experimental group. […] Hela S3 is a hydroxyurea resistant cell line. […] Hydroxyurea was administered intraperitoneally every day at a dose of 250 mg/kg for 10 days. Cisplatin was administered intravenously once a week for three weeks at a dose of 4 mg/kg. Antitumour activities were estimated by the inhibition of tumour volume, which was measured with caliper. Each point represents mean tumour volume calculated from 10 animals per experimental group. […] Cisplatin was administered intravenously once a week for three weeks at a dose of 4 mg/kg. Taxol was administered intravenously once a week for three weeks at a dose of 10 mg/kg. Antitumour activities were estimated by the inhibition of tumour volume, which was measured with caliper. Each point represents mean tumour volume calculated from 10 animals per experimental group. […] Taxol was administered i.p. once a week at a dose of 10 mg/kg. Antitumour activities were estimated by the inhibition of tumour volume (FIG. 12A), which was measured with calipers. Each point represents mean tumour volume calculated from 10 animals per experimental group. Animals were sacrificed and tumour weights taken at the end of the study (FIG. 12C). […] The effects of combined treatment were greater than either treatment alone. […] Cisplatin was administered intravenously once a week for four weeks at a dose of 4 mg/kg. Taxol was administered intravenously once a week for four weeks at a dose of 20 mg/kg. Antitumour activities were estimated by the inhibition of tumour volume, which was measured with caliper. Each point represents mean tumour volume calculated from 9-10 animals per experimental group. […] Cisplatin was administered intravenously once a week for four weeks at a dose of 4 mg/kg. Antitumour activities were estimated by the inhibition of tumour volume, which was measured with caliper. Each point represents mean tumour volume calculated from 10 animals per experimental group. At the end of the study the animals were sacrificed and tumours weighed. […] Taxol was administered i.p. once a week at a dose of 10 mg/kg. Anti-tumour activity was estimated by the inhibition of tumour volume, which was measured with caliper. Each point represents mean tumour volume calculated from 10 animals per experimental group. In addition animals were sacrificed and tumour weights taken at the end of the study. […] CPT-11 was administered i.p. for 5 days at a dose of 20 mg/kg/day. Antitumour activities were estimated by the inhibition of tumour volume, which was measured with caliper. Each point represents mean tumour volume calculated from 10 animals per experimental group. Tumour weights were measured after animals were sacrificed at the end of the treatment. These cells are not resistant to CPT-11 which was used as a positive control."}, "[2]": {"test_system": "C8161 human melanoma cells", "test": "Experimental metastasis of C8161 cells treated ex vivo, lung nodules in CD-1 nude mice (4.2)", "design": "species or system human cells in mice", "procedure": "• 4.1 Experimental metastasis of mouse fibrosarcoma (R3) cells treated with different antisense oligonucleotides in a syngenetic model was estimated as follows. Aliquots of R3 cell suspension were seeded into 100 mm tissue culture dishes at a density of 2×10^6 and incubated overnight at 37° C. in α-MEM medium supplemented with 10% FBS. Cells were washed once in 10 ml of PBS and treated with 0.2 μM of SEQ ID NO: 1 in the presence of cationic lipid (Lipofectin reagent, final concentration, 10 μg/ml, Gibco BRL) for 4 hr. Cells were treated with either saline alone (C) or lipofectin alone (RE) as controls. Oligonucleotide was removed by washing the cells once with PBS and the cells were trypsinized. Cells were then collected by centrifugation, and approximately 1×10^5 cells suspended in 0.2 ml of PBS were injected into the tail veins of 10 week-old C3H female mice. Estimates of the number of lung tumours were made 20 days later, after excised lungs from individual mice were stained with picric acid dye solution (75% picric acid, 20% formaldehyde, 5% glacial acetic acid). Bars represent mean number of tumour nodules in lungs obtained from 4 to 5 animals per experimental group. […] Aliquots of C8161 cell suspension were seeded into 100 mm tissue culture dishes at a density of 2×10^6 and incubated overnight at 37° C. in α-MEM medium supplemented with 10% FBS. […]"}, "[3]": {"test_system": "Caki-1 human kidney cancer cells", "test": "Caki-1 kidney tumour xenograft in SCID mice, controls and chemotherapeutics (Example 7)", "format": "in vivo, human cells in mice", "source_text": "CD-1 athymic female nude mice, BALB/c nu/nu nude mice, SCID, and SCID beige mice were purchased from Charles River Laboratories (Montreal, Canada) and experiments were typically initiated when the mice were 6-7 weeks old. […] Each experimental group typically contained 10 mice. After the size of tumour reached a mean tumour volume of 50-100 mm^3, treatment was initiated. […] Anti-tumour activity was estimated by the measurement of tumour volume with a calliper at two-three day intervals. Tumour volume was calculated by a formula L×W×H/2, where L indicates length, W indicates width and H indicates height. Within 24 hours after the last treatment, the animals were sacrificed and tumour and body weights were measured. Results of statistical analyses of the data are presented as P values in the figure legends.\nThree additional treatment groups received: 5-FU (13 mg/kg/day×5), vinblastine (1 mg/kg/week) and gemcitabine (100 mg/kg/week). […] Calliper measurements at 1-week intervals were used to calculate tumour volumes. Each point in FIG. 28A represents mean tumour volume calculated from 10 animals per experimental group (with the exception of SEQ ID NO:1 which was 8 animals).\nAfter 49 days the mice were sacrificed and the tumours weighed. Each bar represents the mean tumour weight and standard error calculated for each treatment group."}}, "note": "“Also recorded” adds a separate entry of the source."}
{"substance": "5′-GGCTAAATCGCTCCACCAAG-3′ (all phosphorothioate, sugars by position and methylation of C not given here) [SEQ ID NO: 1, fully phosphorothioated antisense oligonucleotide that hybridizes to the coding region of R2 mRNA]", "values": [{"measurement": "Tumour weight as % of saline control", "setting": "[1]; Hela S3 (cervix), hydroxyurea resistant, SCID, SEQ ID NO:1 10 mg/kg i.v. every other day 6 times, Hydroxyurea 250 mg/kg i.p. daily 10 days, Cisplatin 4 mg/kg i.v. weekly x3", "value": 24, "unit": "%"}, {"measurement": "Antitumour effect (tumour volume, FIG. 10)", "setting": "[1]; Hela S3 hydroxyurea resistant, SCID mice, SEQ ID NO:1 10 mg/kg i.v. every other day, Hydroxyurea 250 mg/kg i.p. daily, Cisplatin 4 mg/kg i.v. weekly", "value": "significant delay of tumour growth compared to saline control; also recorded: superior to the inhibitory effects observed with Cisplatin alone"}, {"measurement": "Formation of lung colonies / nodules", "setting": "[2]; C8161 cells treated with 0.2 μM + Lipofectin for 4 hr before i.v. injection into CD-1 nude mice", "value": "significantly reduced the formation of lung colonies; also recorded: significantly reduces the extent of lung nodule formation"}, {"measurement": "Decrease in the number of tumour metastases to lungs", "setting": "[2]; Human Melanoma (ex vivo and in vivo)", "value": "Decrease by approximately 95% in the number"}, {"measurement": "Effect on tumour growth (volume and weight)", "setting": "[3]; Caki-1, SCID mice, oligonucleotides 10 mg/kg/2 days i.v.", "value": "exceptional efficacy against renal cell carcinomas; also recorded: dramatic inhibition in growth of Caki-1 and A498 renal tumours; also recorded: superior to any of these compounds"}, {"measurement": "Time of treatment to complete tumour regression", "setting": "[3]; renal tumours, SCID mice, 10 mg/kg/2 days i.v., day 28 post implantation of tumour", "value": "≤ 3", "unit": "weeks"}]}
